A word on the IC50: it is the concentration that inhibits the measured activity by half.

The subject of the assay is Myc. Put plainly: Myc inhibition assay: Myc expression per cell by anti-Myc immunofluorescence, high-content imaging. The settings on record: medulloblastoma PDX cells, 4 h. Type of assay: cell-based, human (patient-derived medulloblastoma xenograft cells). From the text: To identify Myc inhibitors, cells isolated from patient-derived orthotopic xenografts (PDXs) from patients with Myc-driven medulloblastoma were used. Specifically, PDX cells were propagated by transplantation directly into the cerebellum of immunodeficient (NSG) mice and were never passaged in vitro in order to maintain properties of the tumor from which they were derived. Tumor tissues were isolated from tumor-bearing animals, dissociated into a single-cell suspension, resuspended in serum-free media, and immediately plated in 384 well plates. After overnight recovery, compounds were added to each well, and cells were incubated for 4 hours before being fixed and stained with anti-Myc antibodies and with DAPI to label nuclei. Cells were then analyzed using high-content imaging to determine the levels of Myc expression per cell and IC50 values of the compounds.
A general note: A xenograft is tissue or cells of one species grown in another, often human tumour cells in immunodeficient mice.

Where [1] appears, read: Table 1, read-out: IC50 (Myc inhibition).
[2] abbreviates: Table 2, read-out: MYC Inhibition IC50.

Read-outs that look alike come from different tables or passages of the source. Bounds are passed on as bounds.

For the compound `COc1cc(-c2ncnc(N(C)c3ccccc3)n2)ccn1` [Compound 216, 4-(2-methoxypyridin-4-yl)-N-methyl-N-phenyl-1,3,5-triazin-2-amine], the IC50 is, setting by setting: under setting [1], 10 to 100 µM; under setting [2], 10 to 100 µM.
`c1cc(Nc2nccc(-c3ccc4[nH]cnc4c3)n2)cc(-c2cnco2)c1` [Compound 264, 4-(1H-benzo[d]imidazol-5-yl)-N-(3-(oxazol-5-yl)phenyl)pyrimidin-2-amine]: the IC50 is, setting by setting: under setting [1], < 0.2 µM; under setting [2], < 0.2 µM.
`c1cc(Nc2nccc(-c3ccc4[nH]cnc4c3)n2)cc(-n2ccnn2)c1` [Compound 259, N-(3-(1H-1,2,3-triazol-1-yl)phenyl)-4-(1H-benzo[d]imidazol-5-yl)pyrimidin-2-amine]: the IC50 under setting [1] is < 0.2 µM and the IC50 under setting [2] is < 0.2 µM.
Regarding `Oc1cc(-c2ccnc(Nc3cncc(F)c3)n2)ccn1` [Compound 145, 4-(2-((5-fluoropyridin-3-yl)amino)pyrimidin-4-yl)pyridin-2-ol], the IC50 is, setting by setting: under setting [1], 1 to 10 µM; under setting [2], 1 to 10 µM.
As for `Oc1cc(-c2ccnc(Cc3ccccc3)n2)ccn1` [Compound 229, 4-(2-Benzylpyrimidin-4-yl)pyridin-2-ol], the IC50 under setting [1] lay in the range of 10 to 100 µM and the IC50 under setting [2] was in the range of 10 to 100 µM.
As to `FC(F)(F)c1cccc(Nc2nccc(-c3ccc4[nH]nnc4c3)n2)c1` [Compound 139, 4-(1H-Benzo[d][1,2,3]triazol-5-yl)-N-(3-(trifluoromethyl)phenyl)pyrimidin-2-amine], the IC50 is 0.2 to 1 µM under setting [1] and 0.2 to 1 µM under setting [2].
`CCc1ccccc1Nc1nccc(-c2ccc3[nH]cnc3c2)n1` [Compound 80, 4-(1H-benzo[d]imidazol-5-yl)-N-(2-ethylphenyl)pyrimidin-2-amine]: the IC50 under setting [1] was in the range of 1 to 10 µM and the IC50 under setting [2] is 1 to 10 µM.
Take `Clc1ccc(Nc2nccc(-c3ccc4[nH]cnc4c3)n2)cc1Cl` [Compound 98, 4-(1H-benzo[d]imidazol-5-yl)-N-(3,4-dichlorophenyl)pyrimidin-2-amine]: the IC50 is 0.2 to 1 µM under setting [1] and 0.2 to 1 µM under setting [2].
In the case of `c1cc(-c2ccc3[nH]cnc3c2)nc(Nc2cnn(C3CCOCC3)c2)n1` [Compound 6, 4-(1H-benzo[d]imidazol-5-yl)-N-(1-(tetrahydro-2H-pyran-4-yl)-1H-pyrazol-4-yl)pyrimidin-2-amine], the IC50 is, setting by setting: under setting [1], 1 to 10 µM; under setting [2], 1 to 10 µM.
Consider `Fc1cccc(Nc2nccc(-c3ccc4[nH]ccc4c3)n2)c1` [Compound 202, N-(3-fluorophenyl)-4-(1H-indol-5-yl)pyrimidin-2-amine], for which the IC50 by setting is: under setting [1], 10 to 100 µM; under setting [2], 10 to 100 µM.
For the compound `FC(F)(F)c1cccc(Nc2cc(-c3ccc4[nH]cnc4c3)ccn2)c1` [Compound 52, 4-(1H-benzo[d]imidazol-5-yl)-N-(3-(trifluoromethyl)phenyl)pyridin-2-amine], the IC50 by setting is: under setting [1], 1 to 10 µM; under setting [2], 1 to 10 µM.
Turning to `Oc1cc(-c2ccnc(Nc3cccc(C(F)(F)F)c3)n2)ccn1` [Compound 241, 4-(2-((3-(trifluoromethyl)phenyl)amino)pyrimidin-4-yl)pyridin-2-ol], the IC50 reads like this: under setting [1], 0.2 to 1 µM; under setting [2], 0.2 to 1 µM.
With `COc1cc(-c2ccnc(Nc3ccccn3)n2)ccn1` [Compound 187, 4-(2-methoxypyridin-4-yl)-N-(pyridin-2-yl)pyrimidin-2-amine], the IC50 is 10 to 100 µM under setting [1] and 10 to 100 µM under setting [2].
In the case of `Cc1nc2ccc(-c3ccnc(Nc4cccc(C(F)(F)F)c4)n3)cc2[nH]1` [Compound 142, 4-(2-Methyl-1H-benzo[d]imidazol-6-yl)-N-(3-(trifluoromethyl)phenyl)pyrimidin-2-amine], the IC50 was 0.2 to 1 µM under setting [1] and 0.2 to 1 µM under setting [2].
`c1ccc(Cn2cc(Nc3nccc(-c4ccc5[nH]cnc5c4)n3)cn2)cc1` [Compound 37, 4-(1H-benzo[d]imidazol-5-yl)-N-(1-benzyl-1H-pyrazol-4-yl)pyrimidin-2-amine]: the IC50 is, setting by setting: under setting [1], 0.2 to 1 µM; under setting [2], 0.2 to 1 µM.
With `Oc1ccc(-c2ccnc(Nc3cc(F)ccn3)n2)nc1` [Compound 170, 6-(2-((4-fluoropyridin-2-yl)amino)pyrimidin-4-yl)pyridin-3-ol], the IC50 reads like this: under setting [1], 1 to 10 µM; under setting [2], 1 to 10 µM.
Consider `COc1cc(-c2ccnc(Nc3ncccn3)n2)ccn1` [Compound 195, 4-(2-methoxypyridin-4-yl)-N-(pyrimidin-2-yl)pyrimidin-2-amine], for which the IC50 is, setting by setting: under setting [1], 10 to 100 µM; under setting [2], 10 to 100 µM.
With `Oc1cc(-c2ccnc(Nc3cccc(F)c3F)n2)ccn1` [Compound 205, 4-(2-((2,3-difluorophenyl)amino)pyrimidin-4-yl)pyridin-2-ol], the IC50 runs as follows: under setting [1], 1 to 10 µM; under setting [2], 1 to 10 µM.
For the compound `COc1cccc(-c2ccnc(N(C)c3ccccc3)n2)n1` [Compound 227, 4-(6-methoxypyridin-2-yl)-N-methyl-N-phenylpyrimidin-2-amine], the IC50 fell in the range of 10 to 100 µM under setting [1] and 10 to 100 µM under setting [2].
Regarding `CC(C)c1cccc(Nc2nccc(-c3cnc4nc[nH]c4c3)n2)c1` [Compound 134, 4-(1H-imidazo[4,5-b]pyridin-6-yl)-N-(3-isopropylphenyl)pyrimidin-2-amine], the IC50 is, setting by setting: under setting [1], < 0.2 µM; under setting [2], < 0.2 µM.
As to `Cc1cc(Cl)cc(Nc2nccc(-c3ccc4nc[nH]c4c3)n2)c1` [Compound 274, 4-(1H-benzo[d]imidazol-6-yl)-N-(3-chloro-5-methylphenyl)pyrimidin-2-amine], the IC50 is, setting by setting: under setting [1], < 0.2 µM; under setting [2], < 0.2 µM.
For the compound `Nc1cccc(Nc2nccc(-c3ccc4nc[nH]c4c3)n2)c1` [Compound 275, N1-(4-(1H-benzo[d]imidazol-6-yl)pyrimidin-2-yl)benzene-1,3-diamine], the IC50 was < 0.2 µM under setting [1] and < 0.2 µM under setting [2].
Regarding `COc1cc(-c2ccnc(Nc3cccc(C(F)(F)F)n3)n2)ccn1` [Compound 168, 4-(2-methoxypyridin-4-yl)-N-(6-(trifluoromethyl)pyridin-2-yl)pyrimidin-2-amine], the IC50 under setting [1] is 10 to 100 µM and the IC50 under setting [2] is 10 to 100 µM.
Turning to `COc1cc(-c2ccnc(Nc3ccccc3F)n2)ccn1` [Compound 208, N-(2-fluorophenyl)-4-(2-methoxypyridin-4-yl)pyrimidin-2-amine], the IC50 under setting [1] was in the range of 10 to 100 µM and the IC50 under setting [2] lay within 10 to 100 µM.
For the compound `Oc1ccc(Nc2nccc(-c3ccc4[nH]cnc4c3)n2)cn1` [Compound 29, 5-((4-(1H-benzo[d]imidazol-5-yl)pyrimidin-2-yl)amino)pyridin-2-ol], the IC50 was in the range of 1 to 10 µM under setting [1] and 1 to 10 µM under setting [2].
In the case of `COc1cc(-c2ccnc(Nc3cc(C(F)(F)F)ccn3)n2)ccn1` [Compound 166, 4-(2-methoxypyridin-4-yl)-N-(4-(trifluoromethyl)pyridin-2-yl)pyrimidin-2-amine], the IC50 is, setting by setting: under setting [1], 10 to 100 µM; under setting [2], 10 to 100 µM.
For `Nc1ncc(-c2ccnc(Nc3cccc(C(F)(F)F)c3)n2)s1` [Compound 119, 5-(2-((3-(Trifluoromethyl)phenyl)amino)pyrimidin-4-yl)thiazol-2-amine], the half-inhibitory concentration (IC50) is, setting by setting: under setting [1], < 0.2 µM; under setting [2], < 0.2 µM.
For the compound `COc1cccc(-c2ccnc(Nc3ccccc3)c2)c1` [Compound 246, 4-(3-Methoxyphenyl)-N-phenylpyridin-2-amine], the IC50 lay within 10 to 100 µM under setting [1] and 10 to 100 µM under setting [2].
For the compound `CN(c1ccccc1)c1nccc(-c2cccc(O)n2)n1` [Compound 225, 6-(2-(methyl(phenyl)amino)pyrimidin-4-yl)pyridin-2-ol], the IC50 is, setting by setting: under setting [1], 10 to 100 µM; under setting [2], 10 to 100 µM.
`COc1ccccc1Nc1nccc(-c2ccc3[nH]cnc3c2)n1` [Compound 61, 4-(1H-benzo[d]imidazol-5-yl)-N-(2-methoxyphenyl)pyrimidin-2-amine]: the 50% inhibitory concentration (IC50) reads like this: under setting [1], 1 to 10 µM; under setting [2], 1 to 10 µM.
On to `CCCc1cccc(Nc2nccc(-c3cnc4nc[nH]c4c3)n2)c1` [Compound 133, 4-(1H-imidazo[4,5-b]pyridin-6-yl)-N-(3-propylphenyl)pyrimidin-2-amine], for which the IC50 under setting [1] was < 0.2 µM and the IC50 under setting [2] is < 0.2 µM.
As for `Fc1cnc(Nc2cccc(C(F)(F)F)n2)cc1-c1ccc2nc[nH]c2c1` [Compound 279, 4-(1H-benzo[d]imidazol-6-yl)-5-fluoro-N-(6-(trifluoromethyl)pyridin-2-yl)pyridin-2-amine], the IC50 under setting [1] was < 0.2 µM and the IC50 under setting [2] is < 0.2 µM.
In the case of `Clc1cc(Cl)cc(Nc2nccc(-c3ccc4[nH]cnc4c3)n2)c1` [Compound 49, 4-(1H-benzo[d]imidazol-5-yl)-N-(3,5-dichlorophenyl)pyrimidin-2-amine], the IC50 under setting [1] lay within 1 to 10 µM and the IC50 under setting [2] fell in the range of 1 to 10 µM.
For `COc1ccc(Oc2ccnc(Nc3cccc(F)c3)n2)cn1` [Compound 124], the IC50 under setting [1] was in the range of 10 to 100 µM and the IC50 under setting [2] was in the range of 10 to 100 µM.
With `CN(c1ccccc1)c1nccc(-c2ccc(O)nc2)n1` [Compound 222, 5-(2-(methyl(phenyl)amino)pyrimidin-4-yl)pyridin-2-ol], the IC50 is, setting by setting: under setting [1], 10 to 100 µM; under setting [2], 10 to 100 µM.
For the compound `CS(=O)(=O)Nc1cccc(Nc2nccc(-c3ccc4[nH]cnc4c3)n2)c1` [Compound 255, N-(3-((4-(1H-benzo[d]imidazol-5-yl)pyrimidin-2-yl)amino)phenyl)methanesulfonamide], the IC50 is, setting by setting: under setting [1], 1 to 10 µM; under setting [2], 1 to 10 µM.
`COc1cc(-c2ccnc(Nc3cccc(OCCN)c3)n2)ccn1` [Compound 121, N-(3-(2-aminoethoxy)phenyl)-4-(2-methoxypyridin-4-yl)pyrimidin-2-amine]: the IC50 fell in the range of 1 to 10 µM under setting [1] and 1 to 10 µM under setting [2].

Values taken from patent US20260356817A1, “AMINOPYRIMIDINE AND AMINOTRIAZINE DERIVATIVES AS MYC PROTEIN MODULATORS” (Sanford Burnham Prebys Medical Discovery Institute, priority 2022, published 2026).
